Columns and labels:
Type in all cases: in vivo
ECHCG [1] = test: Post-emergence herbicidal activity, glasshouse pot test; conditions: Echinochloa crus-galli; application post-emergence; rate 1000 g/Ha; evaluated after 13 days
Protocol: (§1) Seeds of a variety of test species were sown in standard soil in pots. After 8 days cultivation (post-emergence) under controlled conditions in a glasshouse (at 24/16° C., day/night; 14 hours light; 65% humidity), the plants were sprayed with an aqueous spray solution derived from the formulation of the technical active ingredient in acetone/water (50:50) solution containing 0.5% Tween 20 (polyoxyethelyene sorbitan monolaurate, CAS RN 9005-64-5). The test plants were then grown in a glasshouse under controlled conditions (at 24/16° C., day/night; 14 hours light; 65% humidity) and watered twice daily. After 13 days, the test was evaluated (5=total damage to plant; 0=no damage to plant).

SETFA [2] = test: as above; conditions: Setaria faberi; application post-emergence; rate 1000 g/Ha; evaluated after 13 days
Protocol: as §1

ABUTH [3] = test: as above; conditions: Abutilon theophrasti; application post-emergence; rate 1000 g/Ha; evaluated after 13 days
Protocol: as §1

AMARE [4] = test: as above; conditions: Amaranthus retroflexus; application post-emergence; rate 1000 g/Ha; evaluated after 13 days
Protocol: as §1

ZEAMX [5] = test: as above; conditions: Zea mays; application post-emergence; rate 1000 g/Ha; evaluated after 13 days
Protocol: as §1

ECHCG [6] = test: Pre-emergence herbicidal activity, glasshouse pot test; conditions: rate 1000 g/Ha, evaluated after 13 days, scale 0-5
Protocol: as §1, with “After” for “After 8 days”, “for one day (pre-emergence)” for “(post-emergence)”

SETFA [7] = test: as above; conditions: rate 1000 g/Ha, evaluated after 13 days, scale 0-5
Protocol: as §1, with “After” for “After 8 days”, “for one day (pre-emergence)” for “(post-emergence)”

ABUTH [8] = test: as above; conditions: rate 1000 g/Ha, evaluated after 13 days, scale 0-5
Protocol: as §1, with “After” for “After 8 days”, “for one day (pre-emergence)” for “(post-emergence)”

AMARE [9] = test: as above; conditions: rate 1000 g/Ha, evaluated after 13 days, scale 0-5
Protocol: as §1, with “After” for “After 8 days”, “for one day (pre-emergence)” for “(post-emergence)”

ZEAMX [10] = test: as above; conditions: rate 1000 g/Ha, evaluated after 13 days, scale 0-5
Protocol: as §1, with “After” for “After 8 days”, “for one day (pre-emergence)” for “(post-emergence)”

| SMILES | Post-emergence herbicidal activity ECHCG (damage score 0-5) (ECHCG [1]) | Post-emergence herbicidal activity SETFA (damage score 0-5) (SETFA [2]) | Post-emergence herbicidal activity ABUTH (damage score 0-5) (ABUTH [3]) | Post-emergence herbicidal activity AMARE (damage score 0-5) (AMARE [4]) | Post-emergence herbicidal activity ZEAMX (damage score 0-5) (ZEAMX [5]) | ECHCG damage score, application pre-emergence (ECHCG [6]) | SETFA damage score, application pre-emergence (SETFA [7]) | ABUTH damage score, application pre-emergence (ABUTH [8]) | AMARE damage score, application pre-emergence (AMARE [9]) | ZEAMX damage score, application pre-emergence (ZEAMX [10]) |
| --- | --- | --- | --- | --- | --- | --- | --- | --- | --- | --- |
| C[C@@H]1C(O)N(c2cc(C(F)(F)F)ccn2)C(=O)N1C (mixture of isomers) [Compound A38, (4R,5R)-4-hydroxy-1,5-dimethyl-3-[4-(trifluoromethyl)-2-pyridyl]imidazolidin-2-one and (4S,5R)-4-hydroxy-1,5-dimethyl-3-[4-(trifluoromethyl)-2-pyridyl]imidazolidin-2-one] | 5 | 5 | 5 | 5 | 4 | 5 | 5 | 5 | 5 | 3 |
| CCO[C@@H]1C(O)N(c2cc(C(F)(F)F)ccn2)C(=O)N1C (single isomer, unassigned) [Compound A34] | 5 | 5 | 5 | 5 | 4 | 5 | 5 | 5 | 5 | 3 |
| CCO[C@H]1C(O)N(c2cc(C(F)(F)F)ccn2)C(=O)N1C (single isomer, unassigned) [Compound A35] | 3 | 3 | 0 | 5 | 1 | 4 | 4 | 4 | 5 | 2 |
| CC1C(O)N(c2cc(C(F)(F)C(F)(F)F)ccn2)C(=O)N1C (single isomer, unassigned) [Compound A72] | 5 | 5 | 5 | 5 | 2 | 5 | 5 | 5 | 5 | 2 |
| CON1C(=O)N(c2cc(C(C)(F)F)ccn2)C(O)C1C (single isomer, unassigned) [Compound A93] | 5 | 5 | 5 | 5 | 4 | 5 | 5 | 5 | 5 | 3 |
| O=C1N2COCC2C(O)N1c1cc(C(F)(F)F)ccn1 (single isomer, unassigned) [Compound A94] | 5 | 5 | 5 | 5 | 5 | 5 | 5 | 5 | 5 | 4 |
| C=CC1C(O)N(c2cc(C(F)(F)F)ccn2)C(=O)N1C (stereo not drawn) [Compound A31] | 5 | 5 | 5 | 5 | 4 | 5 | 5 | 5 | 5 | 2 |
| C=Cc1cnc(N2C(=O)N(C)C(C)C2O)cc1C(F)(F)F (stereo not drawn) [Compound A62] | 5 | 5 | 5 | 5 | 2 | 4 | 3 | 4 | 5 | 2 |
| CC1C(O)N(c2cc(C(F)(F)F)ccn2)C(=O)N1O (stereo not drawn) [Compound A64] | 5 | 4 | 4 | 5 | 1 | 4 | 3 | 2 | 5 | 2 |
| CC1C(O)N(c2cc(C(F)(F)F)c(C(=O)NC(C)(C)C)cn2)C(=O)N1C (stereo not drawn) [Compound A65] | 5 | 5 | 5 | 5 | 5 | 5 | 5 | 5 | 5 | 3 |
| CON1C(=O)N(c2ccc(C(=O)NC(C)(C)C)cn2)C(O)C1C (stereo not drawn) [Compound A66] | 5 | 5 | 5 | 5 | 5 | 5 | 4 | 5 | 5 | 2 |
| CC1C(O)N(c2ccc(C(=O)NC(C)(C)C)cn2)C(=O)N1C (stereo not drawn) [Compound A67] | 5 | 5 | 5 | 5 | 4 | 5 | 5 | 5 | 5 | 3 |

Reference: patent publication US11608323B2 (SYNGENTA LIMITED, priority 2013, dated 2023)
